Measured values: ChEMBL document CHEMBL1201862, “PubChem BioAssay data set” (2004)
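Where inhibition never reached the appropriate level, the endpoint shown equals the highest concentration tested. Otherwise, values were interpolated linearly from a five-concentration, 48-hour dose response in 96-well plates. GI50 = concentration required for 50% inhibition of growth.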 Calls of active or inactive are those of the source. No stated cut-off is given here; in the data, active = GI50 up to about 1.1 µM and inactive = higher.

What was measured:
Experiment in all cases: NCI-60 cell line screen, 48 h
SF-295 = system: SF-295
HL-60 = system: HL-60
OVCAR-4 = system: OVCAR-4
SNB-75 = system: SNB-75
OVCAR-5 = system: OVCAR-5
ACHN = system: ACHN
U-251 = system: U-251
Malme-3M = system: Malme-3M
TK-10 = system: TK-10
IGROV-1 = system: IGROV-1
KM12 = system: KM12
SK-MEL-28 = system: SK-MEL-28
MOLT-4 = system: MOLT-4
K562 = system: K562
786-0 = system: 786-0
COLO 205 = system: COLO 205
A549 = system: A549
LOX IMVI = system: LOX IMVI
UACC-257 = system: UACC-257

Measured: GI50

O=C1CC(=O)N(CCc2ccccc2)S(=O)(=O)N1CCc1ccccc1
inactive: SF-295 16.9 µM | HL-60 19.1 µM | OVCAR-4 19.8 µM | SNB-75 23.1 µM | OVCAR-5 22.7 µM | ACHN 35.9 µM | U-251 16.9 µM | Malme-3M 26 µM | TK-10 36.6 µM | IGROV-1 20.1 µM | KM12 16.2 µM | SK-MEL-28 28.1 µM | MOLT-4 20.3 µM | K562 23.7 µM | 786-0 17.1 µM | COLO 205 22.4 µM | A549 24.4 µM | LOX IMVI 1.91 µM

O=C1CNC(=O)c2[nH]cnc2N1
inactive: SF-295 > 100 µM | HL-60 > 100 µM | OVCAR-4 > 100 µM | SNB-75 > 100 µM | OVCAR-5 > 100 µM | ACHN > 100 µM | U-251 > 100 µM | Malme-3M > 100 µM | TK-10 > 100 µM | IGROV-1 > 100 µM | KM12 > 100 µM | SK-MEL-28 > 100 µM | MOLT-4 > 100 µM | K562 82.6 µM | 786-0 > 100 µM | COLO 205 > 100 µM | A549 > 100 µM | LOX IMVI > 100 µM

CCOC(=O)C(Oc1ccc(OC)c2c1C(=O)CCC2)c1ccccc1 (stereo unspecified)
inactive: SF-295 69.5 µM | HL-60 49 µM | OVCAR-4 48.9 µM | UACC-257 > 100 µM | OVCAR-5 > 100 µM | ACHN > 100 µM | U-251 > 100 µM | Malme-3M > 100 µM | TK-10 > 100 µM | IGROV-1 > 100 µM | KM12 > 100 µM | SK-MEL-28 > 100 µM | MOLT-4 33.7 µM | K562 49.2 µM | 786-0 > 100 µM | COLO 205 > 100 µM | A549 > 100 µM | LOX IMVI > 100 µM

CN1C(c2ccccc2)CS(=O)(=O)CS1(=O)=O (stereo unspecified)
inactive: SF-295 > 100 µM | OVCAR-4 > 100 µM | UACC-257 > 100 µM | SNB-75 > 100 µM | OVCAR-5 > 100 µM | ACHN > 100 µM | U-251 > 100 µM | Malme-3M > 100 µM | TK-10 > 100 µM | IGROV-1 > 100 µM | KM12 > 100 µM | SK-MEL-28 > 100 µM | 786-0 > 100 µM | COLO 205 > 100 µM | A549 > 100 µM | LOX IMVI > 100 µM

CCN(CC)CCCNc1nccc2c(C)c3c(cc12)c1cnccc1n3C
active: SF-295 0.206 µM | OVCAR-4 0.0282 µM | SNB-75 0.427 µM | ACHN 0.353 µM | U-251 0.367 µM | TK-10 0.444 µM | IGROV-1 0.4 µM | SK-MEL-28 0.403 µM | MOLT-4 < 0.01 µM | K562 0.0211 µM | 786-0 0.0927 µM | COLO 205 0.249 µM | A549 0.0526 µM | LOX IMVI 0.0711 µM

O=C(NC12CC3CC(CC(C3)C1)C2)C(=O)c1c[nH]c2ccc(Cl)cc12
inactive: SF-295 11.1 µM | HL-60 17.3 µM | OVCAR-4 21.2 µM | UACC-257 97.1 µM | SNB-75 20.9 µM | OVCAR-5 > 100 µM | ACHN 33.3 µM | U-251 56.5 µM | Malme-3M 34.9 µM | IGROV-1 54.1 µM | KM12 35.6 µM | SK-MEL-28 35.4 µM | MOLT-4 7.89 µM | K562 3.8 µM | 786-0 6.24 µM | COLO 205 81.8 µM | A549 > 100 µM | LOX IMVI 10.1 µM

C/C(CC(=O)Nc1cccc([N+](=O)[O-])c1)=N/NC(N)=S
inactive: SF-295 > 100 µM | HL-60 > 100 µM | UACC-257 > 100 µM | SNB-75 > 100 µM | OVCAR-5 > 100 µM | ACHN > 100 µM | U-251 > 100 µM | Malme-3M > 100 µM | TK-10 > 100 µM | IGROV-1 > 100 µM | KM12 > 100 µM | SK-MEL-28 > 100 µM | MOLT-4 > 100 µM | K562 > 100 µM | 786-0 > 100 µM | COLO 205 > 100 µM | A549 > 100 µM | LOX IMVI > 100 µM

Cc1ccc(S(=O)(=O)N/N=C(\c2nc3ccc([N+](=O)[O-])cc3[nH]c2=O)C(O)c2ccc([N+](=O)[O-])cc2)cc1 (stereo unspecified)
inactive: SF-295 > 100 µM | HL-60 10 µM | OVCAR-4 68.9 µM | UACC-257 > 100 µM | SNB-75 > 100 µM | OVCAR-5 67.1 µM | ACHN 35 µM | U-251 > 100 µM | Malme-3M > 100 µM | TK-10 > 100 µM | IGROV-1 > 100 µM | SK-MEL-28 > 100 µM | MOLT-4 29.4 µM | K562 29.2 µM | 786-0 > 100 µM | COLO 205 > 100 µM | A549 > 100 µM | LOX IMVI 23.8 µM

COC1=CC(=O)c2ccc(C(C)C)cc2C1(C)C1=NC(C)(C)CO1 (stereo unspecified)
inactive: SF-295 > 100 µM | HL-60 63 µM | OVCAR-4 > 100 µM | UACC-257 65.8 µM | SNB-75 80.5 µM | ACHN > 100 µM | U-251 > 100 µM | Malme-3M > 100 µM | TK-10 > 100 µM | IGROV-1 > 100 µM | KM12 > 100 µM | SK-MEL-28 > 100 µM | MOLT-4 81.7 µM | K562 76 µM | 786-0 > 100 µM | COLO 205 > 100 µM | A549 > 100 µM

CC(=O)NC(CCCCNC(=O)N(C)N=O)C(=O)NCc1ccccc1 (stereo unspecified)
inactive: SF-295 > 100 µM | OVCAR-4 > 100 µM | UACC-257 > 100 µM | SNB-75 43.4 µM | OVCAR-5 > 100 µM | ACHN > 100 µM | U-251 > 100 µM | Malme-3M > 100 µM | TK-10 > 100 µM | IGROV-1 > 100 µM | KM12 > 100 µM | SK-MEL-28 > 100 µM | MOLT-4 > 100 µM | K562 > 100 µM | 786-0 > 100 µM | COLO 205 > 100 µM | A549 > 100 µM | LOX IMVI > 100 µM

CC(=O)NNc1nc(C)c(C(/C=C/c2ccc(/C=C/C(=N\NC(=O)c3ccncc3)c3sc(NNC(C)=O)nc3C)cc2)=N/NC(=O)c2ccncc2)s1
inactive: SF-295 > 100 µM | HL-60 > 100 µM | UACC-257 44.5 µM | SNB-75 > 100 µM | OVCAR-5 > 100 µM | ACHN > 100 µM | U-251 > 100 µM | Malme-3M > 100 µM | TK-10 > 100 µM | IGROV-1 > 100 µM | KM12 > 100 µM | SK-MEL-28 > 100 µM | MOLT-4 > 100 µM | K562 > 100 µM | 786-0 > 100 µM | COLO 205 > 100 µM | A549 > 100 µM | LOX IMVI > 100 µM

CC(=O)Nc1[nH]c(=O)[nH]c(=O)c1N(C(C)=O)C(C)=O
inactive: SF-295 > 100 µM | HL-60 > 100 µM | OVCAR-4 > 100 µM | UACC-257 > 100 µM | OVCAR-5 > 100 µM | ACHN > 100 µM | U-251 > 100 µM | Malme-3M > 100 µM | IGROV-1 > 100 µM | KM12 > 100 µM | SK-MEL-28 > 100 µM | MOLT-4 > 100 µM | K562 > 100 µM | 786-0 > 100 µM | COLO 205 > 100 µM | A549 > 100 µM | LOX IMVI > 100 µM

Clc1cc(Cl)cc(Nc2nc3ccccc3nc2-c2cccs2)c1
inactive: SF-295 22.1 µM | HL-60 25.8 µM | UACC-257 23.7 µM | SNB-75 32.4 µM | OVCAR-5 83.4 µM | ACHN 19.4 µM | U-251 > 10 µM | Malme-3M 39 µM | TK-10 37.9 µM | SK-MEL-28 > 10 µM | MOLT-4 47.2 µM | 786-0 17.9 µM | COLO 205 7.23 µM | A549 38.5 µM | LOX IMVI 94.6 µM

C=C(C)C1CC=C(C)C(O)([C@@]2(O)C[C@H](C(=C)C)CC=C2C)C1 (stereo partly specified)
inactive: SF-295 18.9 µM | HL-60 23.1 µM | OVCAR-4 19 µM | UACC-257 19.3 µM | SNB-75 15.4 µM | OVCAR-5 24.5 µM | ACHN 20.3 µM | U-251 16.7 µM | Malme-3M 22.8 µM | TK-10 33.3 µM | IGROV-1 16.6 µM | KM12 19.3 µM | SK-MEL-28 28.3 µM | MOLT-4 17.8 µM | K562 22.2 µM | 786-0 16.8 µM | A549 29.7 µM | LOX IMVI 13.9 µM

C=C(C)C1C/C=C(/C)CCCC2(CCC3=C(CC(C(=C)C)C/C=C(/C)CCC3)O2)C(=O)C1 (stereo unspecified)
inactive: SF-295 > 100 µM | HL-60 > 100 µM | OVCAR-4 > 100 µM | UACC-257 > 100 µM | SNB-75 > 100 µM | ACHN > 100 µM | U-251 > 100 µM | Malme-3M > 100 µM | TK-10 > 100 µM | IGROV-1 > 100 µM | KM12 > 100 µM | SK-MEL-28 > 100 µM | MOLT-4 > 100 µM | K562 > 100 µM | 786-0 > 100 µM | COLO 205 > 100 µM | A549 > 100 µM | LOX IMVI > 100 µM

O=C(O)CN(c1ccccc1)S(=O)(=O)c1ccc([N+](=O)[O-])cc1
inactive: SF-295 > 100 µM | HL-60 > 100 µM | OVCAR-4 > 100 µM | UACC-257 > 100 µM | OVCAR-5 > 100 µM | ACHN > 100 µM | U-251 > 100 µM | Malme-3M > 100 µM | TK-10 > 100 µM | IGROV-1 > 100 µM | KM12 > 100 µM | MOLT-4 > 100 µM | K562 > 100 µM | 786-0 > 100 µM | COLO 205 > 100 µM | A549 > 100 µM | LOX IMVI > 100 µM
